Experimental data: patent US12077503B2, “Substituted cyclic amides and their use as herbicides” (FMC CORPORATION, priority 2015, dated 2024)

Experiments:
Format in all cases: in vivo
[1] = tested on: giant foxtail (Setaria faberi); test: Test G Pre-Emergence Protocol; conditions: Setaria faberi, pre-emergence, 312 h, evaluated after 13 days
Outline: (§1)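 Scores are visual damage ratings from 0 (no damage) to 100 (total plant kill), taken 13 days after treatment. Compound was sprayed one day post-sowing at 15.625, 62.5 or 250 g/ha in 50:50 acetone/water with 0.5% Tween 20.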

[2] = tested on: ivy-leaved morning glory (Ipomoea hederacea); test: Test G Pre-Emergence Protocol; conditions: Ipomoea, pre-emergence, 312 h, evaluated after 13 days
Outline: as §1

corn (Zea mays) [3] = test: Test G Pre-Emergence Protocol; conditions: Zea mays, pre-emergence, 312 h, evaluated after 13 days
Outline: as §1

[4] = tested on: redroot pigweed (Amaranthus retroflexus); test: Test G Pre-Emergence Protocol; conditions: Amaranthus retroflexus, pre-emergence, 312 h, evaluated after 13 days
Outline: as §1

[5] = tested on: velvetleaf (Abutilon theophrasti); test: Test G Pre-Emergence Protocol; conditions: Abutilon theophrasti, pre-emergence, 312 h, evaluated after 13 days
Outline: as §1

[6] = tested on: barnyardgrass (Echinochloa crus-galli); test: Test G Pre-Emergence Protocol; conditions: Echinochloa crus-galli, pre-emergence, 312 h, evaluated after 13 days
Outline: as §1

[7] = tested on: giant foxtail (Setaria faberi); test: Test G Post-Emergence Protocol; conditions: Setaria faberi, post-emergence, 312 h, read-out: Foxtail, Giant damage rating
Outline: (§2)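 Seedlings grown 8 days in soil in a glasshouse (24/16 °C day/night, 14 h light, 65% humidity) were sprayed post-emergence with compound in acetone/water 50:50 plus 0.5% Tween 20 at 15.625, 62.5 or 250 g/ha. Damage was scored after 13 days on a 0–100 scale (100 = total damage).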

[8] = tested on: ivy-leaved morning glory (Ipomoea hederacea); test: Test G Post-Emergence Protocol; conditions: Ipomoea, post-emergence, 312 h, read-out: Morningglory, Ivy-leaved damage rating
Outline: as §2

corn (Zea mays) [9] = test: Test G Post-Emergence Protocol; conditions: Zea mays, post-emergence, 312 h, read-out: Corn damage rating
Outline: as §2

[10] = tested on: redroot pigweed (Amaranthus retroflexus); test: Test G Post-Emergence Protocol; conditions: Amaranthus retroflexus, post-emergence, 312 h, read-out: Pigweed, Redroot damage rating
Outline: as §2

[11] = tested on: velvetleaf (Abutilon theophrasti); test: Test G Post-Emergence Protocol; conditions: Abutilon theophrasti, post-emergence, 312 h, read-out: Velvetleaf damage rating
Outline: as §2

[12] = tested on: barnyardgrass (Echinochloa crus-galli); test: Test G Post-Emergence Protocol; conditions: Echinochloa crus-galli, post-emergence, 312 h, read-out: Barnyardgrass damage rating
Outline: as §2

[13] = 15.625 g ai/ha, evaluated after 13 days (100=total damage to plant; 0=no damage to plant)
[14] = 62.5 g ai/ha, evaluated after 13 days, 100=total damage to plant, 0=no damage to plant
[15] = 250 g ai/ha, evaluated after 13 days, 100=total damage to plant, 0=no damage to plant

CN1C[C@H](c2ccc(C(F)(F)F)cc2)[C@@H](C(=O)Nc2cc(C#N)ccn2)C1=O (racemic) [Compound 1734]
pest or weed control at 15.625 g/ha ([1]; 15.625 g ai/ha, read-out: Foxtail, Giant damage rating (100=total damage to plant; 0=no damage to plant)): 0% | pest or weed control at 62.5 g/ha ([1]; 62.5 g ai/ha, 100=total damage to plant, 0=no damage to plant, read-out: Foxtail, Giant damage rating): 0% | pest or weed control at 250 g/ha ([1]; 250 g ai/ha, read-out: Foxtail, Giant damage rating (100=total damage to plant; 0=no damage to plant)): 10% | pest or weed control at 15.625 g/ha ([2]; 15.625 g ai/ha, read-out: Morningglory, Ivy-leaved damage rating (100=total damage to plant; 0=no damage to plant)): 0% | pest or weed control at 62.5 g/ha ([2]; 62.5 g ai/ha, 100=total damage to plant, 0=no damage to plant, read-out: Morningglory, Ivy-leaved damage rating): 0% | pest or weed control at 250 g/ha ([2]; 250 g ai/ha, read-out: Morningglory, Ivy-leaved damage rating (100=total damage to plant; 0=no damage to plant)): 0% | plant injury at 15.625 g/ha (corn (Zea mays) [3]; 15.625 g ai/ha, read-out: Corn damage rating (100=total damage to plant; 0=no damage to plant)): 0% | plant injury at 62.5 g/ha (corn (Zea mays) [3]; 62.5 g ai/ha, 100=total damage to plant, 0=no damage to plant, read-out: Corn damage rating): 0% | plant injury at 250 g/ha (corn (Zea mays) [3]; 250 g ai/ha, read-out: Corn damage rating (100=total damage to plant; 0=no damage to plant)): 0% | pest or weed control at 15.625 g/ha ([4]; 15.625 g ai/ha, read-out: Pigweed, Redroot damage rating (100=total damage to plant; 0=no damage to plant)): 0% | pest or weed control at 62.5 g/ha ([4]; 62.5 g ai/ha, 100=total damage to plant, 0=no damage to plant, read-out: Pigweed, Redroot damage rating): 0% | pest or weed control at 250 g/ha ([4]; 250 g ai/ha, read-out: Pigweed, Redroot damage rating (100=total damage to plant; 0=no damage to plant)): 0% | pest or weed control at 15.625 g/ha ([5]; 15.625 g ai/ha, read-out: Velvetleaf damage rating (100=total damage to plant; 0=no damage to plant)): 0% | pest or weed control at 62.5 g/ha ([5]; 62.5 g ai/ha, 100=total damage to plant, 0=no damage to plant, read-out: Velvetleaf damage rating): 0% | pest or weed control at 250 g/ha ([5]; 250 g ai/ha, read-out: Velvetleaf damage rating (100=total damage to plant; 0=no damage to plant)): 0% | pest or weed control at 15.625 g/ha ([6]; 15.625 g ai/ha, read-out: Barnyardgrass damage rating (100=total damage to plant; 0=no damage to plant)): 0% | pest or weed control at 62.5 g/ha ([6]; 62.5 g ai/ha, 100=total damage to plant, 0=no damage to plant, read-out: Barnyardgrass damage rating): 0% | pest or weed control at 250 g/ha ([6]; 250 g ai/ha, read-out: Barnyardgrass damage rating (100=total damage to plant; 0=no damage to plant)): 0% | pest or weed control at 15.625 g/ha [7, 13]: 0% | pest or weed control at 62.5 g/ha [7, 14]: 0% | pest or weed control at 250 g/ha [7, 15]: 0% | pest or weed control at 15.625 g/ha [8, 13]: 0% | pest or weed control at 62.5 g/ha [8, 14]: 0% | pest or weed control at 250 g/ha [8, 15]: 0% | plant injury at 15.625 g/ha (corn (Zea mays) [9]; [13]): 0% | plant injury at 62.5 g/ha (corn (Zea mays) [9]; [14]): 0% | plant injury at 250 g/ha (corn (Zea mays) [9]; [15]): 0% | pest or weed control at 15.625 g/ha [10, 13]: 0% | pest or weed control at 62.5 g/ha [10, 14]: 0% | pest or weed control at 250 g/ha [10, 15]: 0% | pest or weed control at 15.625 g/ha [11, 13]: 0% | pest or weed control at 62.5 g/ha [11, 14]: 0% | pest or weed control at 250 g/ha [11, 15]: 0% | pest or weed control at 15.625 g/ha [12, 13]: 0% | pest or weed control at 62.5 g/ha [12, 14]: 0% | pest or weed control at 250 g/ha [12, 15]: 0%
